Results as given in patent US20170196998A1, “NANOPARTICLE CONTRAST AGENT FOR EARLY DIAGNOSIS OF ALZHEIMER'S DISEASE BY MAGNETIC RESONANCE IMAGING (MRI)” (The Chinese University of Hong Kong, priority 2016, published 2017).

Key:
[1] = target: amyloid plaques (Homo sapiens, UniProt P05067); assay: Confocal fluorescent and phase-contrast imaging of amyloid plaque binding on consecutive brain sections; settings: applied to consecutive sections of APP transgenic mouse brain, FIG. 5
Source text: From top to bottom: Thioflavin T, curcumin, and curcumin-conjugated iron oxide.
The formulation of Curcumin-conjugated magnetic nanoparticles is described herein.

[2] = Adsorption isotherm of curcumin on iron oxide (Langmuir model); format: physicochemical; settings: room temperature, monolayer
Experimental: Based on the absorption isotherm study, curcumin preferentially binds the iron oxide surface, with a calculated maximum loading of 75 mg of curcumin per gram of iron oxide. FIGS. 2 & 3 show the adsorption isotherm and Langmuir model, which indicate that Curcumin is forming a monolayer and binds at a homogeneous site on the iron oxide surface.

amyloid plaques, sequence (P05067 672-713 limits assumed): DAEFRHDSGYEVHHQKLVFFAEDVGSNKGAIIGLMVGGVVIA

| Structure (SMILES) | amyloid plaque binding [1] | calculated maximum loading of curcumin on iron oxide [2] |
| --- | --- | --- |
| Cc1ccc2c(c1)sc(-c1ccc(N(C)C)cc1)[n+]2C.[Cl-] [Thioflavin T] | bind amyloid plaques |  |
| COc1cc(/C=C/C(=O)CC(=O)/C=C/c2ccc(O)c(OC)c2)ccc1O [curcumin] | bind amyloid plaques | 75 mg of curcumin per gram of iron oxide |
